# Laboratory results as given in patent US8389792B2, “Compositions and methods for the treatment and prevention of ulcerative colitis and colon cancer and screening methods to identify same” (Cornell University, priority 2007, dated 2013).
# Entries after “also recorded” stand apart in the source; their conditions may differ.
# Columns and labels:
# [1] = test system: Klebsiella pneumoniae; assay: Quantitative fecal culture of Gram-negative aerobes on MacConkey's medium; format: in vivo; settings: for fecal levels of K. pneumoniae after antibiotic: 4-week old TRUC mice, feces cultured 1d before and 1d after antibiotic, limit of detection 4.4 log10 CFU/g
# Experimental: (§1) Individual mice were placed in autoclaved plastic cages. Fecal pellets were transferred immediately upon expulsion into capped microfuge tubes. 4-6 pellets were collected per mouse per time point. All Rag2^−/− mice in FIG. 2F were sampled twice over a 3d period for each weekly time point. Pellets were resuspended in sterile PBS and 10-fold serial dilutions were generated, plated on MacConkey's medium, and incubated in ambient air at 37° C. overnight. Biochemical assays with the API-20E panel (bioMerieux) confirmed that colony morphology correlated with Klebsiella pneumoniae, Proteus mirabilis, or E. coli: therefore, these organisms were subsequently identified based on their colony morphotypes.
# (§2) The lower limit of detection for these studies was 10^4.4 cfu/gram fecal dry weight. A minimum of 30 colonies or a maximum of 300 colonies was counted at a given dilution and the serial dilution had to appropriately reflect the colony counts for the quantitative counts to pass our quality control standards.
# (§3) Mice were treated with the following antibiotics dissolved in their autoclaved drinking water as indicated: ampicillin (1 g/L; Roche), vancomycin (500 mg/L; Sigma), neomycin sulfate (1 g/L; Sigma), metronidazole (1 g/L; Sigma, solubilized with 15 ml of 0.1N acetic acid/L), and gentamicin (2 g/L; Cell Gro); and fluid intake monitored.
# (§4) Dextran sulfate sodium (M.W. 40-50,000; USB Cat# 14489) was dissolved in drinking water at a final concentration of 4% (w/v) and provided for 7d.
# (§5) anti-TNF-α (clone TN3-19.12), a hamster anti-mouse TNF-α neutralizing IgGl antibody and control Ab (hamster anti-GST IgGl) were purchased from Leinco Technologies. Mice were injected with these reagents (15 mg/kg) on a weekly basis for four weeks (Garrett et al., 2007).
# (§6) Peripheral lymph nodes were harvested and cell suspensions were generated as previously described. Fluorescence activated cell sorted C114^+CD62L^h,CD25^+ cells were collected and resuspended in PBS. 75,000 cells were injected per mouse. An equivalent amount of PBS was injected in the control group. 10 mice were injected with T-regulatory cells and nine mice with PBS. All mice were 4 weeks of age at the time of injection (Garrett et al., 2007). This experiment was stopped when the mice were 12 weeks old (as opposed to 14 weeks of age in the TNF-a blockade experiment), because two mice in the control group became quite moribund from their colitis, and euthanasia was indicated as per our animal protocol.
# [2] = test system: Proteus mirabilis; assay: as above; format: in vivo; settings: for fecal levels of P. mirabilis after antibiotic: 4-week old TRUC mice, feces cultured 1d before and 1d after antibiotic, limit of detection 4.4 log10 CFU/g
# Experimental: as §1, §2, §3, §4, §5, §6
# [3] = test system: Klebsiella pneumoniae; assay: TNF-α bacterial co-culture (growth kinetics); format: cell-based; settings: in vitro mono-culture, 6 h, colony counts at 2 h intervals
# Experimental: (§7) TNF-a (final concentration 100u,g/mL culture medium), or PBS alone, was added to cultures of the designated microbes and bacterial concentrations (efu/ml) were followed during a 6 h incubation (37° C. with agitation in ambient air) at 2 h intervals. Bacteria were cultured in Luria Broth and plated on MacConkey's medium.
# [4] = test system: Proteus mirabilis; assay: TNF-α bacterial co-culture (growth kinetics); format: cell-based; settings: in vitro mono-culture, 6 h, colony counts at 2 h intervals
# Experimental: as §7
# [5] = test system: T-bet−/−×RAG2−/− (TRUC) mice; assay: Histologic colitis scoring of colons from treated TRUC mice; format: in vivo, mouse; settings: for TRUC colitis (histologic colitis scores, in vivo antibiotic sensitivity): TRUC mice treated four weeks with single antibiotic in drinking water
# Source text: For studies of the progeny of antibiotic treated animals, progeny were weaned at 21 days and examined six weeks after weaning. These animals had no exposure to antibiotics after weaning.
# Colons were removed from euthanized mice and dissected free from the anus to distal to the cecum. Colonic contents were removed and colons were cleaned with phosphate buffer saline or Hanks' balanced salt solution prior to fixation in 4% PFA or 10% neutral buffered formalin (NBF) followed by routine paraffin embedding. After paraffin embedding, […] sections were cut and stained with hematoxylin and eosin or as noted.
# Sections were examined and the degree of colitis was blindly scored. Each of four histologic parameters were scored as absent (0), mild (1), moderate (2), or severe (3): mononuclear cell infiltraton, polymorphonuclear cell infiltration, epithelial hyperplasia, and epithelial injury, similar to previous studies (Neurath et al., 2002b). Colons from dextran sodium sulfate treated mice were scored using the following parameters scored on a scale of 0-4: percentage of colon involved by inflammation, percentage of crypt loss, presence of lymphoid follicles, edema, erosions, and density of inflammatory cells. The scores for the individual parameters were summed to give a total severity score. […]
# Mice were treated as described previously (Fagarasan, S., et al. (2002). Science 298, 1424-1427; Rakoff-Nahoum, S., et al. (2004). Cell 118, 229-241). Alterations are as noted: in brief, animals were provided ampicillin (1 g/L; Roche), vancomycin (1 gm/L; Henry Schein, Inc. (Hospira, Inc.)), neomycin sulfate (1 g/L; Sigma (Teva Pharmaceuticals)), and metronidazole (1 g/L; Sigma) dissolved in their autoclaved drinking water and their fluid intake was monitored. […]
# as §3, with “monitored. […]” for “monitored.”
# [6] = 8 week-old WT and Rag2−/− mice, 4% in drinking water one week, samples before and 1d after
Compound,fecal levels of K. pneumoniae after antibiotic [1],fecal levels of P. mirabilis after antibiotic [2],"TRUC colitis (histologic colitis scores, in vivo antibiotic sensitivity) [5]",further results
Dextran sulfate sodium,,,,"culturable K. pneumoniae in fecal microbiota after dextran sulfate sodium [1, 6]: did not detect; culturable P. mirabilis in fecal microbiota after dextran sulfate sodium [2, 6]: did not detect"
TNF-a,,,,growth kinetics of K. pneumoniae in vitro [3]: did not affect the growth kinetics; growth kinetics of P. mirabilis in vitro [4]: did not affect the growth kinetics
Cc1ncc([N+](=O)[O-])n1CCO [metronidazole],below our limit of detection,below our limit of detection,,"TRUC colitis (histologic scores) ([5]; six week old TRUC mice, antibiotics 1 g/L each in drinking water for six weeks): cured the colitis"
CN[C@H](CC(C)C)C(=O)N[C@H]1C(=O)N[C@@H](CC(N)=O)C(=O)N[C@H]2C(=O)N[C@H]3C(=O)N[C@H](C(=O)N[C@H](C(=O)O)c4cc(O)cc(O)c4-c4cc3ccc4O)[C@H](O)c3ccc(c(Cl)c3)Oc3cc2cc(c3O[C@@H]2O[C@H](CO)[C@@H](O)[C@H](O)[C@H]2O[C@H]2C[C@](C)(N)[C@H](O)[C@H](C)O2)Oc2ccc(cc2Cl)[C@H]1O [vancomycin],,,does not; also recorded: neither abolished colitis,
gentamicin,below our limit of detection,below our limit of detection,able to ameliorate and cure TRUC,
